These results are taken from patent publication US20140148493A1, “Agricultural and Horticultural Insecticide Composition and Method for Using the Same” (NIHON NOHYAKU CO., LTD., priority 2011, published 2014).

Holding throughout (format): in vivo
For one assay, the system named is Spodoptera litura. As to the kind of experiment: Field test of insecticidal effect on Spodoptera litura (foliar application, Chinese kale). Conditions: flubendiamide 11.3 and/or tolfenpyrad 60 g a.i./ha; for Control effect (%) 4DAT5 / Number of larvae per plant 4DAT5: 4 days after the 5th treatment; for Number of larvae per plant 4DAT5 / Number of larvae per plant 4DAT6: 4-day intervals, Chinese kale field; for Control effect (%) 4DAT6 / Number of larvae per plant 4DAT6: 4 days after the 6th treatment. Here is the method: (§1) In an experimental Chinese kale (Brassica oleracea var. acephala) field (sized 4 m×5 m and planted with 800 plants per plot), foliar application was conducted with a water-diluted agrochemical solution (an amount equivalent to 750 L/ha) containing a predetermined dose of a flubendiamide 20% water-dispersible granule and/or a predetermined dose of a tolfenpyrad 15% emulsifiable concentrate at 4-day intervals, 8 times in total. In plots of Plutella xylostella or Spodoptera litura, 20 plants per plot were chosen at random, the number of surviving larvae was measured before the agrochemical treatment, at 4 days after the 5th agrochemical treatment and at 4 days after the 6th agrochemical treatment. With reference to the number of larvae before the agrochemical treatment, the control effect was calculated according to the formula shown below. In addition, the expected value for the control effect of the mixed use was calculated according to Colby's equation shown below. […] As for plots of Spodoptera exigua, the calculation was performed based on the measurements at 4 days after the 7th agrochemical treatment and at 4 days after the 8th agrochemical treatment.
(§2) Control effect=100−{(Ta×Cb)/(Tb×Ca)}×100
(§3) Ta=the number of larvae after the agrochemical treatment in a treatment plot
(§4) Tb=the number of larvae before the agrochemical treatment in a treatment plot
(§5) Ca=the number of larvae after the agrochemical treatment in a non-treatment plot
(§6) Cb=the number of larvae before the agrochemical treatment in a non-treatment plot
(§7) E(expected value)=(X+Y)−(X−Y/100)
(§8) X=the control effect of flubendiamide alone
(§9) Y=the control effect of tolfenpyrad alone
(§10) In each table, 4DAT5, 4DAT6, 4DAT7 and 4DAT8 are as defined below, and the a. i. stands for active ingredient.
(§11) 4DAT5: the measurement at 4 days after the 5th agrochemical treatment
(§12) 4DAT6 the measurement at 4 days after the 6th agrochemical treatment

The subject of another assay is Plutella xylostella. Briefly: Field test of insecticidal effect on Plutella xylostella (foliar application, Chinese kale). As to conditions: flubendiamide 11.3 and/or tolfenpyrad 60 g a.i./ha; for Control effect (%) 4DAT5 / Number of larvae per plant 4DAT5: 4 days after the 5th treatment; for Number of larvae per plant 4DAT5 / Number of larvae per plant 4DAT6: 4-day intervals, Chinese kale field; for Control effect (%) 4DAT6 / Number of larvae per plant 4DAT6: 4 days after the 6th treatment. Here is the method: as §1, §2, §3, §4, §5, §6, §7, §8, §9, §10, §11, §12

The next assay concerns Spodoptera exigua. As to the kind of experiment: Field test of insecticidal effect on Spodoptera exigua (foliar application, Chinese kale). As to conditions: flubendiamide 11.3 and/or tolfenpyrad 60 g a.i./ha; for Control effect (%) 4DAT7 / Number of larvae per plant 4DAT7: 4 days after the 7th treatment; for Number of larvae per plant 4DAT7 / Number of larvae per plant 4DAT8: 4-day intervals, Chinese kale field; for Control effect (%) 4DAT8 / Number of larvae per plant 4DAT8: 4 days after the 8th treatment. As to the method:
as §1, §2, §3, §4, §5, §6, §7, §8, §9, §10
4DAT7 the measurement at 4 days after the 7th agrochemical treatment
4DAT8 the measurement at 4 days after the 8th agrochemical treatment

On to `Cc1cc(C(F)(C(F)(F)F)C(F)(F)F)ccc1NC(=O)c1cccc(I)c1C(=O)NC(C)(C)CS(C)(=O)=O` [Flubendiamide, 3-iodo-N′-(2-mesyl-1,1-dimethylethyl)-N-{4-[1,2,2,2-tetrafluoro-1-(trifluoromethyl)ethyl]-o-tolyl}phthalamide], for which, in the assay on Spodoptera litura, the “Control effect (%) 4DAT5” value is 3.9%, the “Number of larvae per plant 4DAT5” value is listed as 0.43, the “Control effect (%) 4DAT6” value worked out at 37.8% and the “Number of larvae per plant 4DAT6” value is on record as 0.31. In the assay on Plutella xylostella, the “Control effect (%) 4DAT5” value came out at 53.5%, the “Number of larvae per plant 4DAT5” value is listed as 0.24, the “Control effect (%) 4DAT6” value was 70.0% and the “Number of larvae per plant 4DAT6” value is 0.13. In the assay with Spodoptera exigua, the “Control effect (%) 4DAT7” value came to 37.6%, the “Number of larvae per plant 4DAT7” value is on record as 0.03, the “Control effect (%) 4DAT8” value is on record as 62.2% and the “Number of larvae per plant 4DAT8” value is 0.04.
As for `CCc1nn(C)c(C(=O)NCc2ccc(Oc3ccc(C)cc3)cc2)c1Cl` [Tolfenpyrad, 4-chloro-3-ethyl-1-methyl-N-[4-(p-tolyloxy)benzyl]pyrazole-5-carboxamide], in the assay with Spodoptera litura, the “Control effect (%) 4DAT5” value is 0%, the “Number of larvae per plant 4DAT5” value was found to be 0.25, the “Control effect (%) 4DAT6” value worked out at 0% and the “Number of larvae per plant 4DAT6” value is 0.53. Moreover, in the assay on Plutella xylostella, the “Control effect (%) 4DAT5” value is 29.4%, the “Number of larvae per plant 4DAT5” value was determined as 0.38, the “Control effect (%) 4DAT6” value stood at 58.0% and the “Number of larvae per plant 4DAT6” value is 0.19. In the assay with Spodoptera exigua, the “Control effect (%) 4DAT7” value is 0%, the “Number of larvae per plant 4DAT7” value is on record as 0.06, the “Control effect (%) 4DAT8” value is 0% and the “Number of larvae per plant 4DAT8” value is 0.13.
